# Test results reported in US9521847B2, “Synergistic weed control from applications of pyridine carboxylic acid herbicides and synthetic auxin herbicides and/or auxin transport inhibitors” (Dow AgroSciences LLC, priority 2014, dated 2016).
# Read-outs that look alike come from different tables or passages of the source.
# Legend:
# [1] = tested on: wild pansy (Viola tricolor, VIOTR); test: Greenhouse postemergence trial, % visual injury
# [2] = tested on: nutsedge (Cyperus esculentus, CYPES); test: Greenhouse postemergence trial, % visual injury; type: in vivo
# [3] = tested on: winter rape (BRSNW, Brassica napus); test: Greenhouse postemergence trial, % visual injury; type: in vivo
# [4] = tested on: velvetleaf (Abutilon theophrasti, ABUTH); test: Greenhouse postemergence trial, % visual injury; type: in vivo; conditions: 140 g ae/ha alone; 20-22 d
# [5] = tested on: Russian thistle (Salsola iberica, SASKR); test: Greenhouse postemergence trial, % visual injury; type: in vivo
# [6] = tested on: kochia (KCHSC, Kochia scoparia); test: Greenhouse postemergence trial, % visual injury; type: in vivo
# Description: Following the protocol in Example 1, compound 1 and compound 2 were combined with 2,4 D EHE (EC) and applied to kochia (KCHSC, Kochia scoparia) and the phytotoxicity of the herbicidal compositions was measured.
# Following the protocol in Example 1, compound 1 (EC) and Compound 2 (SC) were combined with diflufenzopyr and applied to kochia (Kochia scoparia, KCHSC) and the phytotoxicity of the herbicidal composition was measured.
# [7] = tested on: sunflower (Helianthus annus, HELAN); test: Greenhouse postemergence trial, % visual injury; type: in vivo; conditions: 140 g ae/ha alone; 20-22 d
# [8] = tested on: ivyleaf morningglory (Ipomoea hederacea, IPOHE); test: Greenhouse postemergence trial, % visual injury; conditions: Ipomoea, post-emergence, read-out: % visual injury, Obs, IPOHE, 140 g ae/ha
# [9] = tested on: Canadian thistle (CIRAR, Cirsium arvense); test: Greenhouse postemergence trial, % visual injury; conditions: Cirsium arvense, post-emergence;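 note: plants sprayed at second to third true leaf stage, injury scored visually 20-22 d later against solvent-blank sprayed controls, 0 meaning no injury and 100 complete kill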
# [10] = tested on: common chickweed (Stellaria media, STEME); test: Greenhouse postemergence trial, % visual injury; type: in vivo
# [11] = tested on: spring rape (Brassica napus, BRSNN); test: Greenhouse postemergence trial, % visual injury; conditions: Brassica napus, post-emergence
# [12] = tested on: poinsettia (Euphorbia heterophylla, EPHHL); test: Greenhouse postemergence trial, % visual injury; conditions: for pest or weed control at 140 g/ha: Euphorbia heterophylla, post-emergence
# maize (ZEAMX) = conditions: in vivo
# [13] = tested on: pigweed (AMARE, Amaranthus retroflexus); test: Greenhouse postemergence trial, % visual injury; type: in vivo; conditions: for % visual injury, Obs: AMARE
# [14] = tested on: grain sorghum (Sorghum vulgare, SORVU); test: Greenhouse postemergence trial, % visual injury; type: in vivo
# spring barley (HORVS) = conditions: in vivo
# [15] = tested on: wild buckwheat (Polygonum convolvulus, POLCO); test: Greenhouse postemergence trial, % visual injury; type: in vivo
# [16] = tested on: wild mustard (Sinapis arvensis, SINAR); test: Greenhouse postemergence trial, % visual injury; type: in vivo
# common rice (ORYSA) = conditions: in vivo
# [17] = tested on: common lambsquarters (CHEAL, Chenopodium album L.); test: Greenhouse postemergence trial, % visual injury; type: in vivo; conditions: Chenopodium album, post-emergence; 140 g ae/ha alone; 20-22 d; read-out: % visual injury Obs
# [18] = read-out: % visual injury (Obs)
# [19] = Hordeum vulgare (spring barley)
smiles,measurement,setting,value
"CCCCC(CC)COC(=O)COc1ccc(Cl)cc1Cl (centres unmarked) [2,4-D EHE, 2-ethylhexyl (2,4-dichlorophenoxy)acetate, reference compound]",% visual injury (Obs),"[1]; 2,4-D EHE 140 g ae/ha",35%
same,% visual injury (Obs),"[1]; 2,4-D EHE 400 g ae/ha",65%
same,pest or weed control at 140 g/ha,"[1]; Viola tricolor, post-emergence, read-out: % visual injury Obs",35%
same,% visual injury (Obs),"[2]; 2,4-D EHE 140 g ae/ha",0%
same,"% visual injury, Obs","[2]; CYPES, 140 g ae/ha",10%
same,pest or weed control at 140 g/ha,"[2]; Cyperus, post-emergence, 140 g ae/ha alone, 20-22 d, read-out: % visual injury Obs",0%
same,% visual injury (Obs),"[3]; 2,4-D EHE 400 g ae/ha",93%
same,% visual injury Obs,"[3]; 280 g ae/ha alone, 20-22 d",85%
same,"% visual injury, Obs","[3]; BRSNW, 400 g ae/ha",93%
same,% visual injury Obs,[4],55%
same,% visual injury (Obs),"[5]; 2,4-D EHE 400 g ae/ha",70%
same,"% visual injury, Obs","[5]; SASKR, 400 g ae/ha",70%
same,% visual injury (Obs),"[6]; 2,4-D EHE 400 g ae/ha",10%
same,% visual injury Obs,"[6]; 280 g ae/ha alone, 20-22 d",10%
same,pest or weed control at 400 g/ha,"[6]; Bassia scoparia, post-emergence, KCHSC, 400 g ae/ha, read-out: % visual injury, Obs",50%
same,% visual injury Obs,[7],75%
same,pest or weed control at 140 g/ha,[8],93%
same,pest or weed control at 140 g/ha,[9]; [18],50%
same,pest or weed control at 400 g/ha,[9]; [18],70%
same,pest or weed control at 140 g/ha,[9]; read-out: % visual injury Obs,50%
same,pest or weed control at 280 g/ha,[9]; read-out: % visual injury Obs,73%
same,% visual injury (Obs),"[10]; 2,4-D EHE 400 g ae/ha",10%
same,% visual injury Obs,"[10]; 140 g ae/ha alone, 20-22 d",63%
same,plant injury at 140 g/ha,[11]; [18],60%
same,plant injury at 400 g/ha,[11]; [18],75%
same,plant injury at 140 g/ha,[11]; read-out: % visual injury Obs,60%
same,plant injury at 140 g/ha,"[11]; read-out: % visual injury, Obs",65%
same,% visual injury (Obs),"[12]; 2,4-D EHE 400 g ae/ha",60%
same,pest or weed control at 140 g/ha,"[12]; read-out: % visual injury Obs, 140 g ae/ha alone, 20-22 d",35%
same,pest or weed control at 140 g/ha,"[12]; read-out: % visual injury, Obs, EPHHL, 140 g ae/ha",5%
same,% visual injury Obs,maize (ZEAMX); Zea mays (maize),0%
same,% visual injury (Obs),maize (ZEAMX); maize (Zea mays),0%
same,"% visual injury, Obs",maize (ZEAMX); maize (Zea mays),0%
same,"% visual injury, Obs",[13]; 140 g ae/ha,75%
same,"% visual injury, Obs",[13]; 400 g ae/ha,80%
same,pest or weed control at 140 g/ha,"[13]; Amaranthus retroflexus, post-emergence, 140 g ae/ha alone, 20-22 d, read-out: % visual injury Obs",95%
same,pest or weed control at 280 g/ha,"[13]; Amaranthus retroflexus, post-emergence, 280 g ae/ha alone, 20-22 d, read-out: % visual injury Obs",30%
same,% visual injury (Obs),"[14]; 2,4-D EHE 140 g ae/ha",0%
same,% visual injury Obs,"[14]; 140 g ae/ha alone, 20-22 d",0%
same,% visual injury (Obs),spring barley (HORVS); [19],0%
same,% visual injury Obs,spring barley (HORVS); [19],0%
same,% visual injury (Obs),spring barley (HORVS); spring barley (Hordeum vulgare),10%
same,% visual injury (Obs),"[15]; 2,4-D EHE 400 g ae/ha",80%
same,% visual injury (Obs),"[15]; 2,4-D EHE 420 g ae/ha",60%
same,% visual injury Obs,"[15]; 140 g ae/ha alone, 20-22 d",55%
same,% visual injury (Obs),"[16]; 2,4-D EHE 400 g ae/ha",97%
same,"% visual injury, Obs","[16]; SINAR, 400 g ae/ha",97%
same,% visual injury (Obs),common rice (ORYSA),0%
same,"% visual injury, Obs",common rice (ORYSA),10%
same,pest or weed control at 140 g/ha,[17],73%
